In series [1] the test system is HCV genotype 1b replicon in Huh-7-derived cell line (Zluc). The series can be described thus: HCV replicon assay (luciferase reporter). Format: cell-based. The method, then:
Huh-7-derived cell line (Zluc) that harbors an HCV genotype 1b replicon and a luciferase reporter gene was grown in Dulbecco's Modified Eagle Medium (DMEM) supplemented with 10% fetal bovine serum, 2 mM GlutaMAX, 1% MEM nonessential amino acids, 100 IU/mL penicillin, 100 μg/mL streptomycin, and 0.5 mg/mL Geneticin® (G418). For dose response testing the cells were seeded in 96-well plates at 7.5×10^3 cells per well in a volume of 50 μL, and incubated at 37° C./5% CO2. Drug solutions were made up freshly in Huh-7 media as 2× stocks. Ten additional 5-fold dilutions were prepared from these stocks in DMEM without G418. At least three hours after Zluc cells were seeded, drug treatment was initiated by adding 50 μL of drug dilutions to the plates in duplicate. Final concentrations of drug ranged from 100 μM to […]. Cells were then incubated at 37° C./5% CO2. Alternatively, compounds were tested at two concentrations (1 μM and 10 μM). […] For this, media was removed from the plates via gentle tapping. Fifty microliters of ONE-glo luciferase assay reagent was added to each well. The plates were shaken gently for 3 min at room temperature and luminescence was measured on a Victor^3 V 1420 multilabel counter (Perkin Elmer) with a 1 second read time using a 700 nm cut-off filter. The EC50 values were calculated from dose response curves from the resulting best-fit equations determined by Microsoft Excel and XLfit 4.1 software. When screening at two fixed concentrations, the results were expressed as % inhibition at 1 μM and 10 μM.
A general note: In antiviral work, replicon cells carry a viral genome segment that copies itself.

The subject of the next series is Zluc cells. The series can be described thus: Cytotoxicity evaluation, CellTiter-Blue Cell Viability Assay. Particulars: read-out: HCV Replicon CC50; Zluc cells, CellTiter-Blue. (In general: Alamar Blue is a resazurin reagent that responds to reducing activity.)
For series [2], the target named is T1, wild-type HCV genotype 1b NS5B protein (recombinant HCV polymerase) (Hepatitis C virus genotype 1b, UniProt Q9WMX2).
T1 construct: approximately 65 kDa HCV genotype 1b NS5B protein were used to generate recombinant HCV polymerases; made in house
Kind of series: HCV polymerase enzyme assay, wild-type. Format: biochemical. From the text: (§1) Test compounds in the form of nucleoside triphosphates were examined for inhibitory activity against purified HCV polymerase in a standard assay. Bacterial expression constructs encoding the approximately 65 kDa HCV genotype 1b NS5B protein were used to generate recombinant HCV polymerases (with a deletion of the 21 carboxy terminal amino acids). Both the wild-type genotype 1b protein and protein containing the S282T mutation were expressed and purified for use in the enzymatic activity assay.
(§2) The enzymatic activity assay measured the inhibitory effect of increasing concentrations of test compound on the incorporation of α-[^33P]-labeled nucleotide into trichloroacetic acid-precipitable material. Recombinant polymerase and synthetic RNA template were combined in reaction buffer containing ribonucleoside triphosphates, α-[^33P]-labeled nucleotide and eight concentrations of test compound in three-fold dilutions. Reactions were incubated for two hours at 30° C.
(§3) Reactions were terminated by the addition of ice-cold trichloroacetic acid and sodium pyrophosphate to promote precipitation of newly-synthesized ribonucleic acid. Precipitable material from the reactions was collected by filtration onto 96-well filter plates, washed extensively with water, and quantified by liquid scintillation.
(§4) The inhibitory activity of test compounds was determined by fitting results to dose-response curves using XLfit software.

In series [3] the target is T2, HCV genotype 1b NS5B protein containing the S282T mutation (Hepatitis C virus genotype 1b, UniProt Q9WMX2, S2701T).
T2 construct: approximately 65 kDa HCV genotype 1b NS5B protein were used to generate recombinant HCV polymerases; made in house
The series can be described thus: HCV polymerase enzyme assay, S282T mutant. Format: biochemical.
Text: as §1, §2, §3, §4

The nature of series [4]: Cytotoxicity evaluation, CellTiter-Blue Cell Viability Assay. Particulars: human.
Where [5] appears, read: Zluc cells, genotype 1b replicon, 72 hours of incubation, read-out: HCV Replicon EC50.
Where [6] appears, read: Hepatitis C virus, 72 h, Zluc cells, genotype 1b replicon, 72 hours of incubation, read-out: HCV Replicon EC50.
Setting [7] is: Zluc cells (HCV replicon cells).
Where [8] appears, read: Hepatitis C virus, 72 h, read-out: HCV Replicon EC50, Zluc cells, genotype 1b replicon, 72 hours of incubation.

Structures are written as SMILES. Where two headings read alike, the source gives them in different places. Where only a bound is given, the exact number is not on record here.

`CC(C)OC(=O)[C@H](C)NP(=O)(OC[C@H]1O[C@@H](n2ccc(=O)[nH]c2=O)[C@H](N)[C@@H]1O)Oc1ccccc1` (single isomer, unassigned) [Compound 526 Diastereomer 2]: the EC50 (in general, the concentration at which the effect is half-maximal) in series [1] (setting [5]) was above 10 µM. Also, the half-maximal cytotoxic concentration (CC50) (commonly the concentration that lowers cell viability or growth by half) with Zluc cells is above 50 µM. Take `C[C@@]1(N=[N+]=[N-])[C@H](O)[C@@H](COP(=O)(O)OP(=O)(O)OP(=O)(O)O)O[C@H]1n1cnc2c(N)ncnc21` [Compound 201]: the IC50 (as a rule, the concentration at which inhibition is half-maximal) in series [2] was 0.25 to 1 µM; in series [3], above 10 µM. For `C[C@@]1(N=[N+]=[N-])[C@H](O)[C@@H](COP(=O)(O)OP(=O)(O)OP(=O)(O)O)O[C@H]1n1ccc(=O)[nH]c1=O` [Compound 202] the same measures were 0.25 to 1 µM and above 10 µM. Take `CC(C)OC(=O)[C@H](C)NP(=O)(OC[C@H]1O[C@@H](n2ccc(=O)[nH]c2=O)[C@](C)(N)[C@@H]1O)Oc1ccccc1` (single isomer, unassigned) [Reference Compound A19 Diastereomer 1, reference compound]: the EC50 in series [1] (setting [5]) was above 10 µM. The CC50 at 72 h in series [4] was above 50 µM.

Turning to `C[C@@]1(N)[C@H](O)[C@@H](COP(=O)(O)OP(=O)(O)OP(=O)(O)O)O[C@H]1n1ccc(=O)[nH]c1=O` [Compound 203], the results for the IC50 in series [2] and in series [3] were 1 to 10 µM and above 10 µM, respectively. In the case of `CC(C)OC(=O)[C@H](C)NP(=O)(OC[C@H]1O[C@@H](n2ccc(=O)[nH]c2=O)[C@H](N)[C@@H]1O)Oc1ccccc1` (single isomer, unassigned) [Compound 526 Diastereomer 1], the EC50 in series [1] (setting [6]) was above 10 µM. In series [4], this compound registered a half-maximal cytotoxic concentration (CC50) at 72 h above 50 µM. For `CC(C)OC(=O)[C@H](C)NP(=O)(OC[C@H]1O[C@@H](n2ccc(=O)[nH]c2=O)[C@H](N=[N+]=[N-])[C@@H]1O)Oc1ccccc1` (single isomer, unassigned) [Compound 528 Diastereomer 2], in series [1] (setting [5]), the EC50 was above 10 µM. Besides, the CC50 in the series with Zluc cells is above 50 µM. As to `C[C@@]1(C#N)[C@H](O)[C@@H](COP(=O)(O)OP(=O)(O)OP(=O)(O)O)O[C@H]1n1ccc(N)nc1=O` [Compound 205], the IC50 in series [2] was in the range of 0.25 to 1 µM. As for `C[C@@]1(N=[N+]=[N-])[C@H](O)[C@@H](CO)O[C@H]1n1ccc(=O)[nH]c1=O` [Reference Compound 102, reference compound], in series [1] (setting [6]), the EC50 was above 10 µM. This compound also gave a CC50 at 72 h in series [4] (setting [7]) above 50 µM. Turning to `Nc1ccn([C@@H]2O[C@H](COP(=O)(O)OP(=O)(O)OP(=O)(O)O)[C@@H](O)[C@H]2N)c(=O)n1` [Compound 207], the 50% inhibitory concentration (IC50) in series [2] fell in the range of 0.25 to 1 µM.

Take `CC(C)OC(=O)[C@H](C)NP(=O)(OC[C@H]1O[C@@H](n2ccc(N)nc2=O)[C@H](N)[C@@H]1O)Oc1ccccc1` (single isomer, unassigned) [Compound 531 Diastereomer 1]: the EC50 in series [1] (setting [8]) is above 10 µM. In addition, in series [4], the CC50 at 72 h was above 50 µM. `CC(C)OC(=O)[C@H](C)NP(=O)(OC[C@H]1O[C@@H](n2ccc(=O)[nH]c2=O)[C@H](N=[N+]=[N-])[C@@H]1O)Oc1ccccc1` (single isomer, unassigned) [Compound 528 Diastereomer 1]: in series [1] (setting [6]), the EC50 is above 10 µM. For the same compound, in series [4], the CC50 at 72 h is above 50 µM.

Consider `CC(C)OC(=O)[C@@H](C)N[P@@](=O)(OC[C@H]1O[C@@H](n2ccc(N)nc2=O)[C@](C)(C#N)[C@@H]1O)Oc1ccccc1` [Compound 1a], for which, in series [1] (setting [6]), the EC50 was above 10 µM. For the same compound, the CC50 at 72 h in series [4] was above 50 µM. On to `C[C@]1(N=[N+]=[N-])C(n2cnc3c(N)ncnc32)O[C@H](CO)[C@H]1O` (stereo partly shown) [Reference Compound 101, reference compound], for which, in series [1] (setting [6]), the EC50 was above 10 µM. Further, the CC50 at 72 h in series [4] (setting [7]) was above 50 µM. Regarding `C[C@@]1(N)[C@H](O)[C@@H](COP(=O)(O)OP(=O)(O)OP(=O)(O)O)O[C@H]1n1ccc(N)nc1=O` [Compound 206], in series [2], the IC50 fell in the range of 1 to 10 µM. As for `CC(C)OC(=O)[C@H](C)NP(=O)(OC[C@H]1O[C@@H](n2ccc(=O)[nH]c2=O)[C@](C)(N)[C@@H]1O)Oc1ccccc1` (single isomer, unassigned) [Reference Compound A19 Diastereomer 2, reference compound], the 50% effective concentration (EC50) in series [1] (setting [5]) is 1 to 10 µM. Also, the CC50 in the series on Zluc cells was above 50 µM. Turning to `C[C@@]1(N)[C@H](O)[C@@H](COP(=O)(O)OP(=O)(O)OP(=O)(O)O)O[C@H]1n1cnc2c(N)ncnc21` [Compound 208], the IC50 is 1 to 10 µM in series [2] and above 10 µM in series [3]. Take `CC(C)OC(=O)[C@H](C)NP(=O)(OC[C@H]1O[C@@H](n2ccc(N)nc2=O)[C@H](N=[N+]=[N-])[C@@H]1O)Oc1ccccc1` (single isomer, unassigned) [Compound 530 Diastereomer 1]: the EC50 in series [1] (setting [8]) was above 10 µM. In series [4], this compound registered a CC50 at 72 h above 50 µM. On the same counts, the results for `CC(C)OC(=O)[C@H](C)NP(=O)(OC[C@H]1O[C@@H](n2ccc(N)nc2=O)[C@H](N=[N+]=[N-])[C@@H]1O)Oc1ccccc1` (mixture of isomers) [Compound 530 Diastereomer Mix] are above 10 µM and above 50 µM. Turning to `C[C@@]1(N)[C@H](O)[C@@H](CO)O[C@H]1n1ccc(=O)[nH]c1=O` [Reference Compound 103, reference compound], the EC50 in series [1] (setting [6]) is above 10 µM. In series [4] (setting [7]), this compound returned a CC50 at 72 h above 50 µM. Turning to `C[C@@]1(C#N)[C@H](O)[C@@H](COP(=O)(O)OP(=O)(O)OP(=O)(O)O)O[C@H]1n1ccc(=O)[nH]c1=O` [Compound 204], the IC50 in series [2] was below 0.25 µM; in series [3], 1 to 10 µM. As for `CC(C)OC(=O)[C@H](C)NP(=O)(OC[C@H]1O[C@@H](n2ccc(=O)[nH]c2=O)[C@](C)(N=[N+]=[N-])[C@@H]1O)Oc1ccccc1` (single isomer, unassigned) [Reference Compound A18 Diastereomer 1, reference compound], the EC50 in series [1] (setting [6]) is above 10 µM. The CC50 at 72 h in series [4] was above 50 µM. Take `CC1(C#N)C(O)C(CO)OC1n1ccc(N)nc1=O` (stereo not shown) [Reference Compound A9b, reference compound]: the EC50 in series [1] (setting [5]) was 1 to 10 µM. Moreover, the CC50 in the series with Zluc cells was above 50 µM.
